Test results: US4564624A, “8-(Substituted N-phenylcarboxamidomethyl) pyrrolizidines and use thereof as antiarrhythmics” (Suntory Ltd., priority 1982, dated 1986)

What was measured:
[1] = system: ddY strain male mice; assay: in vivo; conditions: mouse
[2] = system: ventricular arrhythmias induced by chloroform; assay: Antiarrhythmic activity: prevention of chloroform-induced ventricular flutter and fibrillation in mice; conditions: for ED40 / ED50 / ED20: Mus musculus, sc, 0.5 h; for ED50: read-out: ED50 (95% confidence limit); for Therapeutic index: ratio of LD50 and ED50
Method: At the time when they ceased to breathe, electrocardiogram of each animal was recorded to observe the flutter and fibrillation of the ventricle.
The abnormalities of ventriculus as observed in these animals can be prevented by previous administration of a substance showing antiarrhythmic activity. A compound of this invention, at various dosages, was subcutaneously injected to mice grouped by 29-40 heads. Thirty minutes later these mice were treated with chloroform to induce arrhythmias. Prophylaxis percentages of the flutter and fibrillation of ventricle for each dosage were calculated.

[3] = in vivo; conditions: mouse

Structure (SMILES)	LD50 [1]	ED40 [2]	ED50 [2]	ED20 [2]	Therapeutic index [2]	LD50 [3]
Cc1ccccc1NC(=O)CC12CCCN1CCC2 [Compound 1, N-(2-methylphenyl)-8-pyrrolizidineacetamide]	385 mg/kg	100 mg/kg	> 100 mg/kg	–	–	–
Cc1ccc(NC(=O)CC23CCCN2CCC3)cc1 [Compound 2, N-(4-methylphenyl)-8-pyrrolizidineacetamide]	413 mg/kg	–	–	100 mg/kg	–	–
O=C(CC12CCCN1CCC2)Nc1ccccc1Cl [Compound 3, N-(2-chlorophenyl)-8-pyrrolizidineacetamide]	347 mg/kg	–	> 100 mg/kg	100 mg/kg	–	–
O=C(CC12CCCN1CCC2)Nc1ccccc1Br [Compound 4, N-(2-bromophenyl)-8-pyrrolizidineacetamide]	445 mg/kg	–	59 mg/kg	–	7.54	–
COc1ccccc1NC(=O)CC12CCCN1CCC2 [Compound 5, N-(2-methoxyphynyl)-8-pyrrolizidineacetamide]	381 mg/kg	100 mg/kg	> 100 mg/kg	–	–	–
COc1cccc(NC(=O)CC23CCCN2CCC3)c1 [Compound 6, N-(3-methoxyphenyl)-8-pyrrolizidineacetamide]	417 mg/kg	100 mg/kg	> 100 mg/kg	–	–	–
COc1ccc(NC(=O)CC23CCCN2CCC3)cc1 [Compound 7, N-(4-methoxyphenyl)-8-pyrrolizidineacetamide]	288 mg/kg	–	60 mg/kg	–	4.80	–
Nc1ccccc1NC(=O)CC12CCCN1CCC2 [Compound 8, N-(2-aminophenyl)-8-pyrrolizidineacetamide]	633 mg/kg	–	100 mg/kg	–	6.33	–
Cc1cccc(NC(=O)CC23CCCN2CCC3)c1C [Compound 9, N-(2,3-dimetylphenyl)-8-pyrrolizidineacetamide]	469 mg/kg	–	64 mg/kg	–	7.33	–
Cc1ccc(NC(=O)CC23CCCN2CCC3)c(C)c1 [Compound 10, N-(2,4-dimethylphenyl)-8-pyrrolizidineacetamide]	–	100 mg/kg	> 100 mg/kg	–	–	398 mg/kg
Cc1ccc(C)c(NC(=O)CC23CCCN2CCC3)c1 [Compound 11, N-(2,5-dimethylphenyl)-8-pyrrolizidineacetamide]	400 mg/kg	–	72 mg/kg	–	5.56	–
Cc1cccc(C)c1NC(=O)CC12CCCN1CCC2 [Compound 12, N-(2,6-dimethylphenyl)-8-pyrrolizidineacetaminde]	–	–	24 mg/kg	–	–	–
Cc1ccc(NC(=O)CC23CCCN2CCC3)cc1C [Compound 13, N-(3,4-dimethylphenyl)-8-pyrrolizidineacetamide]	559 mg/kg	–	76 mg/kg	–	7.36	–
Cc1cc(C)cc(NC(=O)CC23CCCN2CCC3)c1 [Compound 14, N-(3,5-dimethylphenyl)-8-pyrrolizidineacetamide]	355 mg/kg	–	52 mg/kg	–	6.83	–
COc1ccc(OC)c(NC(=O)CC23CCCN2CCC3)c1 [Compound 15, N-(2,5-dimethoxyphenyl)-8-pyrrolizidineacetamide]	203 mg/kg	–	90 mg/kg	–	2.26	–
O=C(CC12CCCN1CCC2)Nc1c(Cl)cccc1Cl [Compound 16, N-(2,6-dichlorophenyl)-8-pyrrolizidineacetamide]	200 mg/kg	–	> 100 mg/kg	100 mg/kg	–	–
CCc1cccc(CC)c1NC(=O)CC12CCCN1CCC2 [Compound 17, N-(2,6-diethylphenyl)-8-pyrrolizidineacetamide]	278 mg/kg	–	28 mg/kg	–	9.93	–
Cc1cc(C)c(NC(=O)CC23CCCN2CCC3)c(C)c1 [Compound 18, N-(2,4,6-trimethylphenyl)-8-pyrrolizidineacetamide]	309 mg/kg	–	34 mg/kg	–	9.09	–
